Source: patent publication US20260085069A1, “PRODRUGS” (Cambridge Enterprise Limited, priority 2022, published 2026)
In brackets after ≈: the same amount, converted by molar mass.

Legend:
[1] = Stability in aqueous media (FaSSIF, SGF, PBS); type: physicochemical; details: for FaSSIF (pH 6.5) % remaining 1 h / FaSSIF (pH 6.5) % remaining 6 h / FaSSIF (pH 6.5) % remaining 24 h: FaSSIF pH 6.5, 37° C.; for PBS (pH 7.4) % remaining 1 h / PBS (pH 7.4) % remaining 6 h / PBS (pH 7.4) % remaining 24 h: PBS pH 7.4, 37° C.; for SGF (pH 1.2) % remaining 1 h / SGF (pH 1.2) % remaining 6 h / SGF (pH 1.2) % remaining 24 h: SGF pH 1.2, 37° C.
Procedure: 10 μL of a 10 mM stock solution of the Examples were dissolved in 490 μL DMSO to afford […] working solution SGF (pH 1.2):
Dissolve 0.04 g NaCl and 0.064 g pepsin in 0.14 mL HCl and add sufficient water to 20 mL volume. The pH of the test solution was 1.20±0.05.
0.056% (w/v) lecithin, 0.161% (w/v) sodium taurocholate, 0.39% (w/v) monobasic potassium phosphate, 0.77% (w/v) potassium chloride, deionized H2O. The pH of the test solution was 6.5±0.05.
30 mL of 10×PBS (pH7.4) was added into a 50 mL flask and diluted with water. The solution was mixed well and adjusted to pH 7.4 with 1 N HCl.
2 μL of the 200 μL working solution of the Examples was added into 96-deep-well plates for TO, T60, T120, T360 and T1440 timepoints. Duplicates were prepared.
Stability studies were commenced by the addition of 198 μL of the required media (e.g. Simulated Gastric Fluid pH 1.2 [SGF], Simulated Fasted State Intestinal Fluid pH 6.5 [FaSSIF]) and Phosphate Buffered Saline pH 7.4 [PBS]) to each well except TO. The samples were incubated at 37° C. at 600 rpm for the appointed time. The samples at the corresponding timepoint were removed and immediately mixed with 400 μL of cold acetonitrile containing 200 ng/mL tolbutamide and labetalol (internal standard). The samples were centrifuged at 4000 rpm at 4° C. for 20 minutes. 60 μL of the supernatant was removed and mixed with 180 μL purified water and thoroughly mixed and analysed by LCMS (Shimadzu LC 30-AD, ACQUITY UPLC BEH Phenyl 1.7 um 2.1*50 mm Part No. 186002884, with mobile phase A: 0.1% formic acid in water, mobile phase B: 0.1% formic acid in acetonitrile). Formation of parent was also monitored as a metabolite.
Samples were analysed by Mass Spectrometry QTRAP 6500+.

[2] = type: in vitro ADME; details: rat plasma, 37° C.
Procedure: 5 μL of a 10 mM stock solution of the Examples were dissolved in 495 μL DMSO to afford 500 μL working solution Assay procedure:
98 μL plasma was added to each well of a 96-well reaction plate, using one plate per timepoint (Blank, TO, T10, T30, T60, and T120). 2 μL of working solution was added to each well of the reaction plates except Blank. Each plate was incubated at 37° C. for the indicated timepoint (0, 10, 30, 60, 120 minutes). At the end of incubation, 400 μL of stop solution (200 ng/mL tolbutamide and 200 ng/mL labetalol in 0.1% FA in ACN) was added to precipitate protein. The plates were then sealed and shaken for 20 minutes before centrifugation at 4000 rpm for 20 minutes. […] Formation of parent was also monitored as a metabolite.

[3] = Solubility in simulated fluids (kinetic solubility, 24 hours); type: physicochemical; details: thermodynamic from solid, 24 hour timepoint, room temperature
Procedure: A known quantity of the Examples and control compounds were weighed into a suitable vessel (whatman miniuniprep vials) and a known volume of the required media was added (e.g. Simulated Gastric Fluid pH 1.2 [SGF], Simulated Fasted State Intestinal Fluid pH 6.5 [FaSSIF] or Phosphate Buffered Saline pH 7.4 [PBS]). The samples were subjected to vortex mixing for 2 minutes followed by agitation on a shaker for 24 hours at room temperature at 800 rpm.

[4] = simulated gastric fluid, SGF (pH 1.2)

Row | SMILES | FaSSIF (pH 6.5) % remaining 1 h [1] [%] | FaSSIF (pH 6.5) % remaining 6 h [1] [%] | FaSSIF (pH 6.5) % remaining 24 h [1] [%] | PBS (pH 7.4) % remaining 1 h [1] [%] | PBS (pH 7.4) % remaining 6 h [1] [%] | PBS (pH 7.4) % remaining 24 h [1] [%] | SGF (pH 1.2) % remaining 1 h [1] [%] | SGF (pH 1.2) % remaining 6 h [1] [%] | SGF (pH 1.2) % remaining 24 h [1] [%] | % Example remaining 0 min [2] [%] | Example concentration (nM) 0 min [2] [nM] | % Example remaining 10 min [2] [%] | Example concentration (nM) 10 min [2] [nM] | solubility kinetic at 24 h [3, 4] [µg/mL] | solubility kinetic at 24 h ([3]; FaSSIF (pH 6.5)) [µg/mL]
1 | CC(C)OC(=O)c1ccc2c(c1)nc(OCCOCCCCNCc1cc(F)c(OC(F)(F)F)c(F)c1)c1ccncc12 [Example 2, isopropyl 5-(2-(4-((3,5-difluoro-4-(trifluoromethoxy)benzyl)amino)butoxy)ethoxy)benzo[c][2,6]naphthyridine-8-carboxylate] | 95.4 | 80.5 | 87.2 | 74.5 | 31.0 | 11.5 | 97.1 | 57.9 | 19.6 |  |  |  |  |  | 
2 | CN(C)CCOC(=O)c1ccc2c(c1)nc(OCCOCCCCNCc1cc(F)c(OC(F)(F)F)c(F)c1)c1ccncc12 [Example 3, 2-(dimethylamino)ethyl 5-(2-(4-((3,5-difluoro-4-(trifluoromethoxy)benzyl)amino)butoxy)ethoxy)benzo[c][2,6]naphthyridine-8-carboxylate] | 102.2 | 101.8 | 98.6 | 71.8 | 17.8 | 1.3 | 90.6 | 76.1 | 33.5 | 100.0 | 1830.9 | 0.1 | 2.7 |  | 
3 | COC(=O)c1ccc2c(c1)nc(OCCOCCCCNCc1cc(F)c(OC(F)(F)F)c(F)c1)c1ccncc12 [Example 4, methyl 5-(2-(4-((3,5-difluoro-4-(trifluoromethoxy)benzyl)amino)butoxy)ethoxy)benzo[c][2,6]naphthyridine-8-carboxylate] | 90.0 | 86.6 | 93.3 | 70.3 | 22.4 | 7.9 | 93.7 | 63.7 | 16.5 |  |  |  |  |  | 
4 | CC(C)C(=O)OCOC(=O)c1ccc2c(c1)nc(OCCOCCCCNCc1cc(F)c(OC(F)(F)F)c(F)c1)c1ccncc12 [Example 5, (isobutyryloxy)methyl 5-(2-(4-((3,5-difluoro-4-(trifluoromethoxy)benzyl)amino)butoxy)ethoxy)benzo[c][2,6]naphthyridine-8-carboxylate] | 100.2 | 97.5 | 98.8 | 76.2 | 7.9 | 2.4 | 87.0 | 55.5 | 13.0 |  |  |  |  |  | 
5 | CC(C)(C)C(=O)OCOC(=O)c1ccc2c(c1)nc(OCCOCCCCNCc1cc(F)c(OC(F)(F)F)c(F)c1)c1ccncc12 [Example 6, (pivaloyloxy)methyl 5-(2-(4-((3,5-difluoro-4-(trifluoromethoxy)benzyl)amino)butoxy)ethoxy)benzo[c][2,6]naphthyridine-8-carboxylate] | 112.8 | 97.0 | 109.4 | 85.2 | 27.7 | 5.1 | 88.8 | 59.8 | 20.0 | 100.0 | 1779.1 | 0.3 | 5.0 |  | 
6 | Cc1oc(=O)oc1COC(=O)c1ccc2c(c1)nc(OCCOCCCCNCc1cc(F)c(OC(F)(F)F)c(F)c1)c1ccncc12 [Example 7, (5-methyl-2-oxo-1,3-dioxol-4-yl)methyl 5-(2-(4-((3,5-difluoro-4-(trifluoromethoxy)benzyl)amino)butoxy)ethoxy)benzo[c][2,6]naphthyridine-8-carboxylate] | 101.0 | 93.5 | 89.1 | 78.9 | 16.7 | 0.7 | 98.9 | 67.2 | 26.9 | 100.0 | 1887.9 | 0.1 | 1.2 | 18.5 (≈ 27.3 µM) | 76.1 (≈ 112 µM)
7 | COC(=O)OCOC(=O)c1ccc2c(c1)nc(OCCOCCCCNCc1cc(F)c(OC(F)(F)F)c(F)c1)c1ccncc12 [Example 11, ((methoxycarbonyl)oxy)methyl 5-(2-(4-((3,5-difluoro-4-(trifluoromethoxy)benzyl)amino)butoxy)ethoxy)benzo[c][2,6]naphthyridine-8-carboxylate] | 96.4 | 97.5 | 105.9 | 81.2 | 29.3 | 19.0 | 100.2 | 66.3 | 21.5 |  |  |  |  |  | 
8 | CC(C)(C)OC(=O)OCOC(=O)c1ccc2c(c1)nc(OCCOCCCCNCc1cc(F)c(OC(F)(F)F)c(F)c1)c1ccncc12 [Example 15, ((tert-butoxycarbonyl)oxy)methyl 5-(2-(4-((3,5-difluoro-4-(trifluoromethoxy)benzyl)amino)butoxy)ethoxy)benzo[c][2,6]naphthyridine-8-carboxylate] | 99.0 | 97.9 | 98.6 | 100.3 | 49.7 | 7.9 | 47.5 | 3.8 | 1.8 |  |  |  |  |  | 
9 | O=C(OCOC(=O)c1ccc2c(c1)nc(OCCOCCCCNCc1cc(F)c(OC(F)(F)F)c(F)c1)c1ccncc12)OC1CCOCC1 [Example 16, ((((tetrahydro-2H-pyran-4-yl)oxy)carbonyl)oxy)methyl 5-(2-(4-((3,5-difluoro-4-(trifluoromethoxy)benzyl)amino)butoxy)ethoxy)benzo[c][2,6]naphthyridine-8-carboxylate] | 95.5 | 104.4 | 95.7 | 93.8 | 37.9 | 7.1 | 95.4 | 63.0 | 19.4 | 100.0 | 1845.9 | 0.1 | 2.7 | 39.4 (≈ 54.4 µM) | 99.4 (≈ 137 µM)
